Laboratory results as given in US6239171A, “Tocotrienols and tocotrienol-like compounds and methods for their use” (Lipogenics, Inc., priority 1998, dated 2001).

Columns and labels:
[1] = tested on: hypercholesterolemic swine; test: Serum cholesterol, apolipoproteins, triglycerides, glucose, insulin and glucagon in hypercholesterolemic swine; assay type: in vivo
Protocol: All assays conducted on chicken or swine serum were done following the protocols described in A. A. Qureshi et al., "Lowering Of Serum Cholesterol In Hypercholesterolemic Humans By Tocotrienols" (Palmvitee), Am. […] Plasma insulin, glucagon and TNF levels were measured using radioinnumoassay kits from Ventrex Laboratories, Inc. (Portland, Me.), ICN Biomedicals, Inc. (Costa Mesa, Calif.) and Genzyme Corp. (Cambridge, Mass.), respectively.
We next measured the effects of various tocotrienols from rice bran on HMG-CoA reductase and cholesterol 7α-hydroxylase in hypercholesterolemic swine. Since pigs are very similar to humans in their cholesterol metabolism, they provide a useful model from which to study hypercholesterolemia and related diseases. […] As a result, the pigs develop complicated atherosclerotic plaques that closely resemble advanced atherosclerotic lesions found in humans.
(§1) Each group of three 5-month old swine was administered either a control diet or a control diet supplemented with 50 ppm of TRF or 50 ppm of an individual tocotrienol. […] After a 12 hour fast, serum and plasma samples were taken a 0 hrs, 21 days and 42 days from the start of the feeding period. After taking serum and plasma samples from the pigs at the end of the 42 day period, all of the swine were fasted for a total of 40 hours, followed by a 48 hour refeeding period. One swine from each group was sacrificed at that time and the liver, intestine, lung, heart, loin muscle, adipose tissue and ham muscle were removed.
The experimental conditions were the same, except that the two remaining swine in each group were transferred to the unsupplemented control diet following the 42 day feeding period. After an additional 70 days, serum and plasma samples were collected from these swine after a 12 hour fast for testing.

[2] = tested on: hypercholesterolemic swine; test: Total cholesterol, triglyceride and glucose concentrations in tissues of hypercholesterolemic swine; assay type: in vivo; settings: control diet + 50 ppm, 42 days
Protocol: as §1
We next determined the effect of tocotrienols on the total cholesterol, triglyceride and glucose concentrations in various tissues of hypercholesterolemic swine.

[3] = 70 days on control diet after 42 days at 50 ppm

## CC(C)=CCC/C(C)=C/CC/C(C)=C/CCC1(C)CCc2cc(O)c(C)c(C)c2O1 (stereo not shown) [γ-T3, γ-tocotrienol, reference compound]
[1]; [3]
  HDL-CHOLESTEROL CONCENTRATION IN SERUM: 30.47 mg/100 ml
  HDL-CHOLESTEROL, Percentage of Control Activity: 106.66%
  HDL-CHOLESTEROL, percentage of baseline value: 139.39%
  HDL:LDL CHOLESTEROL, Percentage of Control Activity: 84.52%
  LDL-CHOLESTEROL CONCENTRATION IN SERUM: 224.66 mg/100 ml
  LDL-CHOLESTEROL, Percentage of Control Activity: 88.61%
  LDL-CHOLESTEROL, percentage of baseline value: 125.95%
  TOTAL CHOLESTEROL CONCENTRATION IN SERUM: 271.70 mg/100 ml
  TOTAL CHOLESTEROL, Percentage of Control Activity: 78.80%
  TOTAL CHOLESTEROL, percentage of baseline value: 129.66%
[1]; control diet + 50 ppm, 6 weeks
  Apo A1, percentage of control: 102.06%
  Apo A1 concentration in serum: 26.22 ± 1.11 mg/100 ml
  Apo B concentration in serum: 114.29 ± 1.79 mg/100 ml
  Apo B, percentage of control: 77.34%
  Triglycerides concentration in serum: 61.78 mg/100 ml
  Triglycerides, percentage of control: 80.69%
[1]; control diet + 50 ppm, 21 days
  HDL-CHOLESTEROL CONCENTRATION IN SERUM: 25.27 mg/100 ml
  HDL-CHOLESTEROL, percentage of baseline value: 115.59%
  HDL:LDL CHOLESTEROL, percentage of baseline value: 89.83%
  LDL-CHOLESTEROL CONCENTRATION IN SERUM: 185.12 mg/100 ml
  LDL-CHOLESTEROL, percentage of baseline value: 103.78%
  TOTAL CHOLESTEROL CONCENTRATION IN SERUM: 225.20 mg/100 ml
  TOTAL CHOLESTEROL, percentage of baseline value: 107.39%
[1]; control diet + 50 ppm, 42 days
  Glucagon: 285.41 pg/mL
  Glucagon, percentage of control: 86.38%
  Glucose: 74.40 mg/100 ml
  Glucose, percentage of control: 77.51%
  HDL-CHOLESTEROL CONCENTRATION IN SERUM: 28.55 mg/100 ml
  HDL-CHOLESTEROL, Percentage of Control Activity: 111.06%
  HDL-CHOLESTEROL, percentage of baseline value: 130.60%
  HDL:LDL CHOLESTEROL, Percentage of Control Activity: 60.58%
  HDL:LDL CHOLESTEROL, percentage of baseline value: 82.84%
  Insulin: 21.2 µU/mL
  Insulin, percentage of control: 103.46%
  LDL-CHOLESTEROL CONCENTRATION IN SERUM: 193.80 mg/100 ml
  LDL-CHOLESTEROL, Percentage of Control Activity: 66.22%
  LDL-CHOLESTEROL, percentage of baseline value: 108.65%
  TOTAL CHOLESTEROL CONCENTRATION IN SERUM: 233.93 mg/100 ml
  TOTAL CHOLESTEROL, Percentage of Control Activity: 71.00%
  TOTAL CHOLESTEROL, percentage of baseline value: 111.76%
[2]
  TOTAL CHOLESTEROL CONCENTRATION, Adipose Tissue: 94.55 mg/100 gm
  TOTAL CHOLESTEROL CONCENTRATION, Ham Muscle: 85.15 mg/100 gm
  TOTAL CHOLESTEROL CONCENTRATION, Heart: 56.68 mg/100 gm
  TOTAL CHOLESTEROL CONCENTRATION, Intestine: 187.06 mg/100 gm
  TOTAL CHOLESTEROL CONCENTRATION, Liver: 149.20 mg/100 gm
  TOTAL CHOLESTEROL CONCENTRATION, Loin Muscle: 103.48 mg/100 gm
  TOTAL CHOLESTEROL CONCENTRATION, Lung: 83.79 mg/100 gm
  TOTAL CHOLESTEROL, Adipose Tissue, percentage of control: 86.43%
  TOTAL CHOLESTEROL, Ham Muscle, percentage of control: 85.15%
  TOTAL CHOLESTEROL, Heart, percentage of control: 87.86%
  TOTAL CHOLESTEROL, Intestine, percentage of control: 86.81%
  TOTAL CHOLESTEROL, Liver, percentage of control: 74.01%
  TOTAL CHOLESTEROL, Loin Muscle, percentage of control: 86.51%
  TOTAL CHOLESTEROL, Lung, percentage of control: 82.36%
  TOTAL GLUCOSE CONCENTRATION, Adipose Tissue: 15.93 mg/100 gm
  TOTAL GLUCOSE CONCENTRATION, Ham Muscle: 52.10 mg/100 gm
  TOTAL GLUCOSE CONCENTRATION, Heart: 46.81 mg/100 gm
  TOTAL GLUCOSE CONCENTRATION, Intestine: 62.50 mg/100 gm
  TOTAL GLUCOSE CONCENTRATION, Liver: 383.68 mg/100 gm
  TOTAL GLUCOSE CONCENTRATION, Loin Muscle: 60.30 mg/100 gm
  TOTAL GLUCOSE CONCENTRATION, Lung: 63.08 mg/100 gm
  TOTAL GLUCOSE, Adipose Tissue, percentage of control: 86.86%
  TOTAL GLUCOSE, Ham Muscle, percentage of control: 96.80%
  TOTAL GLUCOSE, Heart, percentage of control: 95.05%
  TOTAL GLUCOSE, Intestine, percentage of control: 86.84%
  TOTAL GLUCOSE, Liver, percentage of control: 94.53%
  TOTAL GLUCOSE, Loin Muscle, percentage of control: 84.64%
  TOTAL GLUCOSE, Lung, percentage of control: 94.25%
  TOTAL TRIGLYCERIDES CONCENTRATION, Adipose Tissue: 391.58 mg/100 gm
  TOTAL TRIGLYCERIDES CONCENTRATION, Ham Muscle: 181.99 mg/100 gm
  TOTAL TRIGLYCERIDES CONCENTRATION, Heart: 142.72 mg/100 gm
  TOTAL TRIGLYCERIDES CONCENTRATION, Intestine: 351.33 mg/100 gm
  TOTAL TRIGLYCERIDES CONCENTRATION, Liver: 397.51 mg/100 gm
  TOTAL TRIGLYCERIDES CONCENTRATION, Loin Muscle: 201.65 mg/100 gm
  TOTAL TRIGLYCERIDES CONCENTRATION, Lung: 167.18 mg/100 gm
  TOTAL TRIGLYCERIDES, Adipose Tissue, percentage of control activity: 89.88%
  TOTAL TRIGLYCERIDES, Ham Muscle, percentage of control activity: 97.93%
  TOTAL TRIGLYCERIDES, Heart, percentage of control activity: 98.96%
  TOTAL TRIGLYCERIDES, Intestine, percentage of control activity: 98.24%
  TOTAL TRIGLYCERIDES, Liver, percentage of control activity: 92.58%
  TOTAL TRIGLYCERIDES, Loin Muscle, percentage of control activity: 91.79%
  TOTAL TRIGLYCERIDES, Lung, percentage of control activity: 97.22%
